Test results: patent publication US20250381198A1 (Melt Pharmaceuticals, Inc., priority 2024, published 2025)

Experiments:
Type in all cases: in vivo, human
healthy adult subjects [1] = experiment: Phase 1 pharmacodynamics: sedation by Ramsay sedation scale (RSS); conditions: for Subjects with RSS score of 2: 5 minutes after administration
Experimental: Pharmacodynamic parameters included sedation, defined as time to onset of sedation and sedation level, assessed using the Ramsay sedation scale (RSS), and cardiodynamics assessed by QTcF, heart rate, and PR and QRS intervals, and T-wave morphology and U-wave presence, extracted from ECGs collected via Holter monitor from predose through 24 hours postdose.
All pharmacodynamic analyses were performed on data from the Safety Population. The RSS scores were summarized by treatment and by timepoint. Time to onset of sedation was summarized by treatment and presented graphically.

healthy adult subjects [2] = experiment: Phase 1 safety: adverse events, vital signs, laboratory values, ECG, oral cavity examination, neurocognitive assessment (SPMSQ); conditions: for Mean changes from baseline in systolic and diastolic blood pressures: MELT-100 3/25 mg and 6/25 mg, each timepoint
Experimental: The Investigator evaluated safety using physical and oral examinations, O2 saturation (SpO2), vital sign measurements, clinical laboratory evaluations, electrocardiograms (ECGs), reported or observed adverse events (AEs), and assessments of neurocognitive function. Subjects were monitored for any AEs from the first dose through the end of the study.
All safety analyses were performed on data from the Safety Population. All quantitative safety data were tabulated with descriptive summary statistics, including the following: arithmetic mean, SD, median, minimum value, maximum values, and number of non-missing observations (n).
Frequency counts and percentage were provided for categorical data. Data were summarized by treatment sequence, treatment, and/or overall, as applicable. All observed baseline/predose and postdose values were summarized by treatment when data were available. Additionally, the corresponding change from baseline/predose assessment to each postdose assessment were also summarized by treatment. All tabulations involving change from baseline/predose comparisons included only those subjects with data at both the baseline/predose and postdose assessments.
Adverse events were coded using the Medical Dictionary for Regulatory Activities (MedDRA, version 22.0, or later) terms and summarized by system organ class (SOC) and preferred term (PT) within SOC. The number and percentage of subjects reporting TEAEs were summarized by reported SOC and PT for each treatment and the population overall. TEAEs were also summarized by maximum severity and nearest relationship to study drug, by SOC and PT for each treatment.
A by-subject AE (including treatment-emergent) data listing, including but not limited to verbatim term, SOC, PT, severity, and relationship to study treatment, was provided. Deaths, SAEs, and other significant AEs, including those leading to early termination of study treatments were listed.
Vital signs, clinical laboratory values (hematology, serum chemistry, and urinalysis), and 12-lead ECG parameters were summarized by treatment including any abnormal values flagged.
Physical examination and oral cavity examination data at each evaluation were listed. […] Weight and height were summarized. Neurocognitive assessments for each evaluation were listed.

[3] = test system: subjects undergoing cataract extraction with lens replacement (CELR); experiment: Phase 2 MELT-300: subjects achieving procedural sedation (RSS level 2 or 3 without rescue); conditions: for Subjects who achieved target sedation: Full analysis set, MELT-300, 3 mg midazolam alone, 50 mg ketamine alone, sublingual; for Subjects achieving procedural sedation: No / Subjects achieving procedural sedation: Yes: Visit 2 (Day 1), Full Analysis Set, single sublingual tablet (MELT-300; midazolam 3 mg; ketamine 50 mg)
Experimental: Achievement of procedural sedation was evaluated for each subject (see TABLE 20). Success for procedural sedation for this Phase 2 study was defined as achieving target sedation level (Ramsay Sedation Scale (RSS) scale level 2 or 3) at the start of surgery without the need for rescue sedation medication, and no need for intraoperative rescue sedation medication to maintain target sedation level.

[4] = test system: subjects undergoing cataract extraction with lens replacement (CELR); experiment: Phase 2: subject-rated worst pain during surgery by the numeric pain rating scale; conditions: Full Analysis Set; for Worst Pain During Surgery (NPRS), Mean / Worst Pain During Surgery (NPRS), Median: carry forward, MELT-300, midazolam 3 mg, ketamine 50 mg
[5] = test system: subjects undergoing cataract extraction with lens replacement (CELR); experiment: Phase 2: subjects achieving analgesia response (NPRS < 4); conditions: Full Analysis Set; for Subjects achieving analgesia response (observed): Yes: NPRS < 4 at the available four intraoperative timepoints
Experimental: (§1) The number of subjects achieving analgesia response (observed) in the full analysis set was determined. Success in analgesia response was defined as NPRS<4 at the available at the available four intraoperative timepoints and a failure otherwise (e.g., any interoperative pain rescue was assumed to be a failure. Results are provided in TABLE 25. The number of subjects completing the surgery is provided in TABLE 26, and the number of subjects completing the surgery without interruption is provided in TABLE 27. For this measure, subjects completing the surgery without interruption (other than rescue medication) due to pain or anxiety were considered successes. The number of subjects requiring rescue sedative medication and those requiring analgesic medication are provided in TABLES 28 and 29, respectively. For all TABLES 25-29, p-Values between pairs of treatments were calculated and are provided.

[6] = test system: subjects undergoing cataract extraction with lens replacement (CELR); experiment: Phase 2: subjects completing the surgery (and without interruption); conditions: Visit 2 (Day 1); Full Analysis Set
Experimental: as §1

[7] = test system: subjects undergoing cataract extraction with lens replacement (CELR); experiment: Phase 2: subjects receiving opioid concomitant medication postoperatively; conditions: Full Analysis Set; percent of subjects
[8] = midazolam 3.5 mg IV, ketamine 18 mg IV
[9] = 5-minute postdose timepoint, ketamine 18 mg IV

Compound | Subjects with RSS score of 2 (healthy adult subjects [1]; [8]) [%] | Highest proportion of subjects with RSS scores >2 postdose (healthy adult subjects [1]; [8]) [%] | Mean changes from baseline in systolic and diastolic blood pressures (healthy adult subjects [2]; [8]) | Subjects who achieved target sedation [3] [%] | Subjects achieving procedural sedation: No [3] | Subjects achieving procedural sedation: Yes [3] | Worst pain: Mean Difference versus Placebo [4] | Worst Pain During Surgery (NPRS), Mean [4] | Worst Pain During Surgery (NPRS), Median [4] | Subjects achieving analgesia response (observed): No [5] | Subjects achieving analgesia response (observed): Yes [5] | Subjects completing the surgery: No [6] | Subjects completing the surgery: Yes [6] | Received Postoperative Opioid on Day 2-8: No, % [7] | Received Postoperative Opioid on Day 2-8: Yes, % [7] | Received Postoperative Opioid on Day 2: No, % [7] | Received Postoperative Opioid on Day 2: Yes, % [7] | further results
Cc1ncc2n1-c1ccc(Cl)cc1C(c1ccccc1F)=NC2 [Midazolam, 8-chloro-6-(2-fluorophenyl)-1-methyl-4H-imidazo[1,5-a][1,4]benzodiazepine] | 91.7 | ~54 | minimal and similar | 64.2 | 29 (35.8) n (%) | 52 (64.2) n (%) | 0.05 | 4.0 | 4.0 | 48 (59.3) n (%) | 33 (40.7) n (%) | 0 (0) n (%) | 81 (100.0) n (%) | (100.0) % | (0.0) % | (100.0) % | (0.0) % | Subjects with RSS scores of 3 (healthy adult subjects [1]; 5-minute postdose timepoint, midazolam 3.5 mg IV): 8.3%; PR duration (one subject) (healthy adult subjects [2]; 24 hours after midazolam 3.5 mg IV in Period 4, not considered clinically significant): abnormal; Subjects with treatment-related AEs (healthy adult subjects [2]; midazolam 3.5 mg IV): 8.3%; Treatment-related AEs, number of events (healthy adult subjects [2]; midazolam 3.5 mg IV): 2 events; Mean change from baseline in pulse oximetry (healthy adult subjects [2]; midazolam 3.5 mg IV at 10-minute postdose, MELT-100 6/50 mg at 30-minute postdose): small mean decrease from baseline; Worst pain: Mean Difference versus Ketamine ([4]; versus ketamine 50 mg): 0.38
CNC1(c2ccccc2Cl)CCCCC1=O (stereo not shown) [Ketamine, 2-(2-chlorophenyl)-2-(methylamino)cyclohexanone] | 92.0 | ~8 | highest at the 10-minute timepoint | 63.3 | 29 (36.7) n (%) | 50 (63.3) n (%) | −0.33 | 3.7 | 4.0 | 40 (50.6) n (%) | 39 (49.4) n (%) | 0 (0) n (%) | 79 (100.0) n (%) | (100.0) % | (0.0) % | (100.0) % | (0.0) % | Subjects with RSS score of 1 (healthy adult subjects [1]; [9]): 4.0%; Subjects with RSS score of 5 (healthy adult subjects [1]; [9]): 4.0%; Treatment-related AEs of hypertension, number (healthy adult subjects [2]; ketamine 18 mg IV): 3
